{"source": "paper PMC11676896", "about": "“Protective Action of Cannabidiol on Tiamulin Toxicity in Humans—In Vitro Study” (International Journal of Molecular Sciences, 2024)", "key": {"HEK 293 cells": {"tested_on": "HEK 293 cells", "test": "MTT assay (mitochondrial activity)", "assay_type": "cell-based, human", "method": "(§1) The cytotoxic potential of the veterinary drug and its mixtures with cannabidiol at two non-toxic concentrations: 1.56 and 3.15 µg/mL, on the human SH-SY5Y, HepG2 and HEK 293 cell lines was assessed by decreased viability of the cells within five biochemical endpoints: mitochondrial activity and lysosomal activity (MTT assays, reducing the tetrazolium dye MTT 3-(4,5-dimethylthiazol-2-yl)-2,5-diphenyltetrazolium bromide and neutral red uptake (NRU) assays), total protein content (TPC assay), cellular membrane integrity (leakage lactate dehydrogenase (LDH) assay) and DNA synthesis (the bromodeoxyuridine/5-bromo-2′-deoxyuridine incorporation into the DNA cells (BrdU) assay) after 72 h exposition. Data obtained from the measurement of the optical density in these assays were transformed to percentages in relation to the negative control group (0.1% DMSO in medium), considered to be 100% for the MTT, NRU, TPC and BrdU assays and 0% for the LDH assay. 1% Trition-X 100 solution in medium was used as the positive controls, (Figure 3).\n(§2) The human neuroblastoma (SH-SY5H), hepatoma (HepG2) and kidney cells (HEK 293) cells were purchased from the American Type Culture Collection: ATCCCRL-2266,ATCC HB-8065 and ATCC CRL-1573, respectively. These cells were cultured in Minimum Essential Medium Eagle (MEME) (ATCC). The media were supplemented with 10% FBS, 1% L-glutamine (and 1% antibiotic solution (P4333 Sigma). The cells were maintained in 75 cm^2 cell culture flasks (NUNC) in a humidified incubator at 37 °C in an atmosphere of 5% CO2. The medium was refreshed every two or three days, and the cells were subcultured by 0.25% trypsin–0.02% EDTA after reaching 70–80% confluence. Single cell suspensions were prepared and adjusted to a density of 2 × 10^5 cell/mL^−1 (SH-SY5H), 1 × 10^5 cell/mL^−1 (HepG2) and 1 × 10^5 cell/mL^−1 (HEK-293). The cell suspension was transferred to 96-well plates (100 µL/well) or Lab-Tek chamber slides (8 wells) (Nunc) for staining and incubated for 24 h before the exposure to the studied compounds. Stock solutions of tiamulin fumarate and cannabidiol were prepared in DMSO and diluted with culture medium to obtain a concentration range from 1.56 to 200 µg/mL and 1.56 or 3.156 µg/mL, respectively. The selection of tiamulin concentrations was based on data from the literature and pilot studies. The final concentration of DMSO was 0.1% in the medium. The same final concentrations of the solvent and the 1% Trition-X 100 solution were used as the negative and positive controls, respectively. A total of 500 µM hydrogen peroxide (H2O2) in was used as the positive control in the DCFH assay. […] As a negative control, cultured cells were grown in the absence of studied compounds. Each concentration was tested in six replicates in three independent experiments. Cytotoxicity was assessed after 72 h of exposure of the cells to the compounds. The medium was not changed during the incubation time.\n(§3) The metabolic activity of living cells was assessed by the measurement of the activity of dehydrogenases. After the incubation of the cells with the studied compounds, 10 μL of the MTT solution (5 mg/mL in PBS) was added to each well of 96-well plates and incubated. After 3 h, the MTT solution was removed, and the intracellular formazan crystals were dissolved in 100 µL DMSO. The plate was shaken for 15 min at room temperature and transferred to a Synergy 2 Multi-Mode Microplate Reader (BioTek® Instruments Inc., Winooski, VT, USA) to measure the absorbance at 570 nm, using a blank as a reference. Cytotoxicity was expressed as a percentage of the negative control (0.1% DMSO in medium).\n(§4) This study was performed in three independent experiments. The obtained results are presented as mean values ± SD (standard deviation). […]"}, "HepG2 cells [1]": {"tested_on": "HepG2 cells", "test": "MTT assay (mitochondrial activity)", "assay_type": "cell-based, human", "details": "HepG2, 72 h", "method": "as §1, §2, §3, §4"}, "SH-SY5Y cells [2]": {"tested_on": "SH-SY5Y cells", "test": "MTT assay (mitochondrial activity)", "assay_type": "cell-based, human", "details": "72 h", "method": "as §1, §2, §3, §4"}, "HEK-293 cells [3]": {"tested_on": "HEK-293 cells", "test": "DCFH-DA assay of reactive oxygen species (ROS)", "assay_type": "cell-based, human", "details": "HEK-293, lowest concentration of tiamulin, 72 h", "method": "as §2, with “Each concentration was tested in six replicates in three independent experiments.” left out, “The medium was not changed during the incubation time.” left out\n(§5) Intracellular levels of ROS were evaluated using the redox-sensitive fluorescent dye DCFH-DA [62]. […] After 72 h of incubation, the fluorescence of 2′,7′-dichlorofluorescein (DCF) was measured. Fluorescence was determined at 485/530 nm using a fluorescence microplate reader (BioTek® Instruments Inc., Winooski, VT, USA)."}, "HepG2 cells [4]": {"tested_on": "HepG2 cells", "test": "DCFH-DA assay of reactive oxygen species (ROS)", "assay_type": "cell-based, human", "details": "HepG2, lowest concentration of tiamulin, 72 h", "method": "as §2, with “Each concentration was tested in six replicates in three independent experiments.” left out, “The medium was not changed during the incubation time.” left out\nas §5"}, "SH-SY5Y cells [5]": {"tested_on": "SH-SY5Y cells", "test": "DCFH-DA assay of reactive oxygen species (ROS)", "assay_type": "cell-based, human", "details": "lowest concentration of tiamulin, 72 h", "method": "as §2, with “Each concentration was tested in six replicates in three independent experiments.” left out, “The medium was not changed during the incubation time.” left out\nas §5"}, "HEK-293 cells [6]": {"tested_on": "HEK-293 cells", "test": "Cytotoxicity over the five assays (MTT, NRU, TPC, LDH, BrdU)", "assay_type": "cell-based", "details": "Homo sapiens, HEK293, 72 h, read-out: IC50 values, range over the five assays", "method": "as §1\n(§6) The human neuroblastoma (SH-SY5H), hepatoma (HepG2) and kidney cells (HEK 293) cells were purchased from the American Type Culture Collection: ATCCCRL-2266,ATCC HB-8065 and ATCC CRL-1573, respectively. These cells were cultured in Minimum Essential Medium Eagle (MEME) (ATCC). […] Cytotoxicity was assessed after 72 h of exposure of the cells to the compounds. […]"}, "HepG2 cells [7]": {"tested_on": "HepG2 cells", "test": "Cytotoxicity over the five assays (MTT, NRU, TPC, LDH, BrdU)", "assay_type": "cell-based", "details": "Homo sapiens, HepG2, 72 h, read-out: IC50 values, range over the five assays", "method": "as §1, §6"}, "RAW264.7 macrophages": {"tested_on": "RAW264.7 macrophages", "parameters": "method as in PMID 35956888", "details": "cited from earlier work"}, "[8]": {"details": "Homo sapiens, read-out: inhibited concentration (IC50), MTT"}}, "note": "Structures can show the parent of a compound that is named as a salt."}
{"smiles": "C=C[C@]1(C)C[C@@H](OC(=O)CSCCN(CC)CC)[C@]2(C)[C@H](C)CC[C@]3(CCC(=O)[C@H]32)[C@@H](C)[C@@H]1O", "note": "[T, tiamulin fumarate]", "values": [{"measurement": "tiamulin concentration that inhibited mitochondrial activity", "setting": "HEK 293 cells; HEK-293, 72 h", "value": 25, "unit": "µg/mL"}, {"measurement": "IC50", "setting": "HEK 293 cells; Homo sapiens, HEK293, 72 h, read-out: inhibited concentration (IC50), MTT", "value": "27.5 ± 0.8", "unit": "µg/mL"}, {"measurement": "tiamulin concentration that inhibited mitochondrial activity", "setting": "HepG2 cells [1]", "value": 12.5, "unit": "µg/mL"}, {"measurement": "IC50", "setting": "HepG2 cells [1]; [8]", "value": "27.4 ± 1.3", "unit": "µg/mL"}, {"measurement": "tiamulin concentration that inhibited mitochondrial activity", "setting": "SH-SY5Y cells [2]; significant (p ≤ 0.05) vs negative control", "value": 6.25, "unit": "µg/mL"}, {"measurement": "IC50", "setting": "SH-SY5Y cells [2]; [8]", "value": "30.2 ± 1.8", "unit": "µg/mL"}, {"measurement": "increase in fluorescence intensity of the probes (ROS)", "setting": "HEK-293 cells [3]", "value": 91, "unit": "%"}, {"measurement": "increase in fluorescence intensity of the probes (ROS)", "setting": "HepG2 cells [4]", "value": 44, "unit": "%"}, {"measurement": "increase in fluorescence intensity of the probes (ROS)", "setting": "SH-SY5Y cells [5]", "value": 66, "unit": "%"}, {"measurement": "IC50", "setting": "HEK-293 cells [6]", "value": "8.5 to 76.9", "unit": "µg/mL"}, {"measurement": "IC50", "setting": "HepG2 cells [7]", "value": "13.9 to 39.5", "unit": "µg/mL"}, {"measurement": "concentrations that did not result in 50% reduction in the macrophages' viability", "setting": "RAW264.7 macrophages", "value": "up to 20 μg/mL"}, {"measurement": "concentrations with no significant cytotoxicity", "setting": "RAW264.7 macrophages", "value": "less than 5 μg/mL"}]}
